Assay results: US9572792B2, “Coumarin compounds as receptor modulators with therapeutic utility” (Allergan, Inc., priority 2009, dated 2017)

These molecules were tested against human S1P1 receptor (Homo sapiens (Human), UniProt P21453) (assay: GTP γ35S binding assay). Settings: S1P1 receptor from GTP γ35S; membranes of cells stably expressing the S1P1 receptor.
Format: biochemical
Procedure: The S1P1 activity of the compounds according to the invention, were tested using the GTP γ^35S binding assay. The compounds were assessed for their ability to activate or block activation of the human S1P1 receptor in cells stably expressing the S1P1 receptor.
GTP γ^35S binding was measured in the medium containing (mM) HEPES 25, pH 7.4, MgCl2 10, NaCl 100, dithiothreitol 0.5, digitonin 0.003%, 0.2 nM GTP γ^35S, and 5 μg membrane protein in a volume of 150 μl. Test compounds were included in the concentration range from 0.08 to 5,000 nM unless indicated otherwise. Membranes were incubated with 100 μM 5′-adenylylimidodiphosphate for 30 min, and subsequently with 10 μM GDP for 10 min on ice. Drug solutions and membrane were mixed, and then reactions were initiated by adding GTP γ^35S and continued for 30 min at 25° C. Reaction mixtures were filtered over Whatman GF/B filters under vacuum, and washed three times with 3 mL of ice-cold buffer (HEPES 25, pH7.4, MgCl2 10 and NaCl 100). Filters were dried and mixed with scintillant, and counted for ^35S activity using a 8-counter. Agonist-induced GTP γ^35S binding was obtained by subtracting that in the absence of agonist. Binding data were analyzed using a non-linear regression method. In case of antagonist assay, the reaction mixture contained 10 nM S1P in the presence of test antagonist at concentrations ranging from 0.08 to 5000 nM.
S1P1 receptor from GTP γ^35S: nM, (EC50),

Sequence of human S1P1 receptor (P21453 whole entry): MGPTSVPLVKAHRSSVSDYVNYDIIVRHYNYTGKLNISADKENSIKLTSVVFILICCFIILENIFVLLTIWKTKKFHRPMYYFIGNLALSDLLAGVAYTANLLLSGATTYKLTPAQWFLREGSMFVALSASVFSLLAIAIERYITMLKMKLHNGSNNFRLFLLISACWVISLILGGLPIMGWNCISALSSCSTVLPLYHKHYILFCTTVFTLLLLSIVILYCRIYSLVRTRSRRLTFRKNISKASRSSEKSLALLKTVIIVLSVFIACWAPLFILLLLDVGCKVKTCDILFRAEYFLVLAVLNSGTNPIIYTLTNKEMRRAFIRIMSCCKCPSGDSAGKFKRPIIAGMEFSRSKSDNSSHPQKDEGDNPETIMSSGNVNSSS

Row | EC50 | Compound
1 | 3.5 nM | CCCc1c(OC)ccc2cc(C(=O)Nc3ccc(S(N)(=O)=O)cc3Br)c(=O)oc12 [Compound 38, N-[4-(aminosulfonyl)-2-bromophenyl]-7-methoxy-2-oxo-8-propyl-2H-chromene-3-carboxamide]
2 | 3.1 nM | CCCc1c(OC)ccc2cc(C(=O)Nc3ccc(NC(=O)[C@H](N)CCC(=O)O)cc3C)c(=O)oc12 [Compound 62, (4R)-4-amino-5-[(4-{[(7-methoxy-2-oxo-8-propyl-2H-chromen-3-yl)carbonyl]amino}-3-methylphenyl)amino]-5-oxopentanoic acid]
3 | 19 nM | CCCc1c(OC)ccc2cc(C(=O)Nc3ccncc3Br)c(=O)oc12 [Compound 6, N-(3-bromopyridin-4-yl)-7-methoxy-2-oxo-8-propyl-2H-chromene-3-carboxamide]
4 | 26.4 nM | CCCc1c(OC)ccc2cc(C(=O)Nc3ccccc3Br)c(=O)oc12 [Compound 5, N-(2-bromophenyl)-7-methoxy-2-oxo-8-propyl-2H-chromene-3-carboxamide]
